Test results reported in US20210024499A1, “OXIDIZED BIS(3-INDOLYL)METHANES AND USES THEREOF” (Sanford Burnam Prebys Medical Discovery Institute, priority 2018, published 2021).

Experiments:
HCT116 cancer cells = assay: Apoptosis assay, Annexin V-FITC/propidium iodide flow cytometry; type: cell-based; conditions: Homo sapiens, HCT-116, 6 hours, Annexin V-FITC/PI flow cytometry (Table 4)
Description: HCT116 cancer cells plated at a density of 1×10^6 per well on six-well plates were treated with different concentration of test compounds for 6 hours, and then the suspension and the adherent cells were collected, stained with Annexin V-FITC for 15 minutes and with propodium iodide for 5 minutes, and analyzed immediately by cytoFLEX Flow Cytometry System (Beckman-Coulter, Miami, Fla., USA) using FITC and PC5.5 (Table 4).

Bcl-2−/−HeLa cells = assay: Mitochondrial membrane potential (JC1), Bcl-2-/- cells of the MEF study; type: cell-based; conditions: Bcl-2−/−HeLa cells as printed, 0.5 μM, 6 h
Description: (§1) Loss of mitochondrial membrane potential (Avm) represents one of the hallmarks of apoptosis. A JC-1 probe was employed to measure mitochondrial depolarization in cancer cells. MDA-MB-231 breast cancer cells were treated with different concentration of test compounds for 6 hours. JC-1 staining solution (5 μg/ml) was added at 37° C. for 20 min. After washing with PBS twice, mitochondrial membrane potentials were monitored by determining the relative amounts of dual emission from a multiple fluorescence reader. The fluorescence in cells was quantitatively analyzed by flow cytometry. Mitochondrial depolarization is depicted by an increase in the green/red fluorescence intensity ratio. ROS were monitored with the oxiadtion-senstive fluorescent probe 2′7′-dichlorodihydroflurescenin diacetate (DCF-DA).
(§2) In addition, Bcl-2^−/−MEF cells were more resistant than the parental MEF cells to Compound 1 in its induction of the mitochondrial membrane potential loss measured by JC1 staining and in the release of mitochondrial ROS (as performed in Example A-12).

Nur77-LBD [1] = molecular target: T1, Nur77-LBD (Homo sapiens, UniProt P22736); assay: Surface plasmon resonance (SPR) binding to Nur77-LBD; conditions: Nur77-LBD protein, 25° C.
T1 construct: Protein spectra of purified Nur77-LBD at temperature 50° C. and above changed substantially; His (N); made in house
T1 sequence (P22736 360-595 limits assumed): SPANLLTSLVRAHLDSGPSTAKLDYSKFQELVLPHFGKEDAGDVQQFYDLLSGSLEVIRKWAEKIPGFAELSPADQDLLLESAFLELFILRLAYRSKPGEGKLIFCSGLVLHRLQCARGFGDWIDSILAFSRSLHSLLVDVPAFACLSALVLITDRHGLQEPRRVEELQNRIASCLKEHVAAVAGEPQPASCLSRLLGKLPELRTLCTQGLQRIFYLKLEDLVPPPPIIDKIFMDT
Description: The binding kinetics between Nur77-LBD and test compounds was analyzed at 25° C. on a BlAcore T200 machine with CMS chips (GE Healthcare). PBSP was used for all measurements. For SPR measurements, Nur77-LBD proteins were purified. A blank channel was used as negative control. About 10,000 response units of Nur77-LBD were immobilized on the chips. When the data collection was finished in each cycle, the sensor surface was regenerated with Glycine-HCl 2.5. A serial of concentrations ranging from 0.15 to 5.0 μM were designed for the experiment. Sensograms were fit globally with BIAcore T200 analysis using 1:1 Langumuir binding mode.

MEF cells = assay: Mitochondrial membrane potential (JC1), MEF; type: cell-based, mouse; conditions: 0.5 μM, 6 h
Description: as §1, §2

Nur77-LBD [2] = molecular target: T1, Nur77-LBD; assay: Circular dichroism (CD) binding to Nur77-LBD; conditions: purified Nur77-LBD, spectra changed at 50° C. and above (FIG. 9)
Description: Stock solutions of 100 mM test compound in ethanol were added to 0.5 ml of 1 μM purified His-proteins in PBS, pH 7.6. CD spectra were obtained in a 0.2 cm path length cell at temperature between 25° C. to 65° C. by using an AVIV 62 DS spectropolarimeter for a wavelength range at 220 nm. Three spectra were corrected for background and averaged for each sample. The Kd was determined using nonlinear regression analysis for a one-site binding model (χ2>0.98).

[3] = test system: mTOR markers p-S6 and p-4EBP1; assay: mTOR inhibition: expression of mTOR markers; type: cell-based; conditions: MDA-MB-231 cells, 6 hours
Nur77−/−MEFs = assay: Cell viability (MTT), Nur77-/- MEFs; type: cell-based, mouse; conditions: 6 hours, MTT (FIG. 8)
Description: (§3) Cell viability was analyzed by using a colorimetric 3-(4,5-dimethylthiazol-[…]2-yl)-2,5-diphenyletetrazolium Bromide (MTT) assay that determines mitochondrial dehydrogenase activities in the living cells with a colorimetric method. Cells treated with test compounds were incubated with MTT and their effect on the viability of the cells was assayed by the ability of treated cells to reduce the yellow tetrazolium dye MTT to its insoluble formazan, which has a purple color.
(§4) The apoptotic effect of Compound 1 was examined in mouse embryonic fibroblast (MEF) and MEF lacking Nur77 (Nur77^−/−MEF). […] Induction of PARP cleavage (as performed in Example A-7) in MEFs by Compound 1 at 0.5 μM was also attenuated in Nur77^−/−MEFs.

MEFs = assay: Cell viability (MTT), MEFs; type: cell-based, mouse; conditions: 6 hours, MTT (FIG. 8)
Description: as §3, §4

PyMT mammary tumor = assay: MMTV-PyMT mice breast cancer model; type: in vivo; conditions: for growth of PyMT mammary tumor: 18 days
Description: Female MMTV-PyMT mice of 12 weeks old were randomly divided into two groups (n=7 each), treated with a daily oral dose of test compound for 18 days. Standard histopathological analysis of tumor tissue was performed (see Example A-19). Test compounds were dissolved in DMSO and diluted with normal saline containing 5.0% (V/V) Tween-80 to a final concentration 0.5 mg/ml. Normal saline with DMSO and 5.0% Tween-80 was employed as the vehicle control.
4 μm thick sections were deparaffinized and rehydrated using xylene and a graded series of ethanol (100, 95, 85, 75, 50%), followed by washing in PBS. Antigen retrieval was performed in 10 mM sodium citrate buffer (pH 6.0), which was microwaved at 100° C. for 20 minutes. After rinsed twice in PBS, sections were blocked at room temperature for 1 hour by using 10% normal goat serum, followed by incubation with anti-ki-67, anti-cleaved-caspase-3, overnight (at least 17 hours) at 4° C. Colors were developed with a DAB horseradish peroxidase color development kit.

Bcl-2−/−MEFs = assay: PARP cleavage, Bcl-2-/- MEFs; type: cell-based, mouse; conditions: 0.5 μM
Description: The apoptotic effect of Compound 1 was also examined in mouse embryonic fibroblast (MEF) and MEF lacking Bcl-2 (Bcl-2^−/−MEF). […] Apoptotic cells were counted in 200 cells.

Nur77−/−HeLa cells = assay: PARP cleavage and caspase 3 activation, Nur77 knockout HeLa; type: cell-based
Description: Knocking out Nur77 and Bcl-2 from HeLa cells employed the CRISPR/Cas9 system. gRNA targeting sequence of Nur77 (5′-[…]-3′) and Bcl-2 (5′-[…]-3′) was cloned into gRNA cloning vector Px330 (Addgene, 71707) and confirmed by sequencing. To screen for cells lacking Nur77 or Bcl-2, HeLa cells were transfected with control vector and gRNA expression vectors, followed by G418 selection (0.5mg/m1). Single colonies were subjected to Western blotting using anti-Nur77 and anti-Bcl-2 antibody to select knockout cells.
The apoptotic effect of Compound lwas also evaluated in Nur77 genome knockout HeLa cells generated by CRISPR/Cas9 technology (Example A-5).

FC(F)(F)c1ccc([C+](c2c[nH]c3ccccc23)c2c[nH]c3ccccc23)cc1 [Compound 1, Bis(1H-indol-3-yl)(4-(trifluoromethyl)phenyl)methylium methanesulfonate]
IC50 (HCT116 cancer cells): < 500 nM
JC1 green to red ratio (control 100%) (Bcl-2−/−HeLa cells): 150%
Kd (Nur77-LBD [1]): 100 nM
JC1 green to red ratio (control 100%) (MEF cells): 400%
binding to Nur77-LBD (CD spectra) (Nur77-LBD [2]): direct binding
expression levels of mTOR marker p-4EBP1 ([3]; 0.75 μM): reduced the expression levels
expression levels of mTOR markers p-S6 and p-4EBP1 ([3]; 1 μM): reduced the expression levels
growth inhibitory effect relative to MEFs (Nur77−/−MEFs): significantly diminished
growth of MEFs (MEFs): dose-dependently inhibited the growth of MEFs
expression levels of mTOR markers p-S6 and p-mTOR in tumor (PyMT mammary tumor; 3 mg/kg): markedly reduced
growth of PyMT mammary tumor (PyMT mammary tumor; 3 mg/kg daily oral): inhibited the growth of PyMT mammary tumor
growth of PyMT mammary tumor (PyMT mammary tumor; 5 mg/kg daily oral): inhibited the growth of PyMT mammary tumor
expression levels of proliferation markers PCNA and Ki67 in tumor tissues (PyMT mammary tumor; 5 mg/kg, Western blotting): markedly reduced
cleaved caspase 3 in tumor tissue specimens (PyMT mammary tumor; 5 mg/kg, immunostaining): enhanced expression of cleaved caspase 3
PARP cleavage (Bcl-2−/−MEFs): no apparent effect
induction of PARP cleavage and caspase 3 activation (Nur77−/−HeLa cells): strongly suppressed
